Results taken from paper PMC2797363, “Discovery of Novel Proteasome Inhibitors Using a High-Content Cell-Based Screening System” (PLoS ONE, 2009).

Target: T1, 26S proteasome (chymotryptic activity, LLVY-AMC; β5 subunit) (Oryctolagus cuniculus, UniProt G1T4Q9)
T1 construct: gene PSMB5; purified 26S proteasomes from rabbit muscle; with other subunits of the 26S proteasome
T1 sequence (G1T4Q9 60-263): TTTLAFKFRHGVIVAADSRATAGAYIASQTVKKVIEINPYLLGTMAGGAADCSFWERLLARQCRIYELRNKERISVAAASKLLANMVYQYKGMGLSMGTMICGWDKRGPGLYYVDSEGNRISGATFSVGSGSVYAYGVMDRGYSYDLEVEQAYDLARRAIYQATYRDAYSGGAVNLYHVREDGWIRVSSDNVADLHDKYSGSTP
Experiment: Suc-LLVY-AMC fluorogenic hydrolysis by purified 26S proteasome, 30 μM compound
Format: biochemical

Cn1c(=S)c2[nH]c(SCCN3C(=O)c4ccccc4C3=O)nc2n(C)c1=O [NSC99671, 2-[2-[(1,3-dimethyl-2-oxo-6-sulfanylidene-7H-purin-8-yl)sulfanyl]ethyl]isoindole-1,3-dione]
Suc-LLVY-AMC fluorogenic hydrolysis by purified 26S proteasome, 30 μM compound: NSC99671 displayed a moderate inhibitory effect
